Experimental data: patent US20130289014A1, “Combination therapy in treatment of oncological and fibrotic diseases” (BOEHRINGER INGELHEIM INTERNATIONAL GMBH, priority 2010, published 2013)

Experiments:
[1] = system: BxPC-3 pancreas adenocarcinoma; assay: BxPC-3 pancreas adenocarcinoma subcutaneous xenograft; format: in vivo, mice; settings: for T/C: BxPC-3
Protocol: (§1) BomTac:NMRI-Foxn1^nu mice were grafted subcutaneously with NCI-H460 non-small cell lung carcinoma (mutant KRAS, wild-type p53), HCT 116 colon carcinoma (mutant KRAS, wild-type p53) or BxPC-3 pancreas adenocarcinoma cells (wild-type KRAS, mutant p53). Treatment was initiated when the tumors had reached a volume of ˜50 mm^3. BI 811283 was injected intravenously once or twice weekly as a single bolus or b.i.d. Alternatively, the compound was administered once-weekly by a continuous 24 h infusion via subcutaneously implanted osmotic mini-pumps. Multiple dose levels and dosing schedules were evaluated.

human Aurora B kinase = human Aurora B kinase (Homo sapiens, UniProt Q96GD4); assay: Enzymatic kinase assay, Aurora B; format: biochemical
human Aurora B kinase, sequence (Q96GD4 whole entry, the tested form may be a part): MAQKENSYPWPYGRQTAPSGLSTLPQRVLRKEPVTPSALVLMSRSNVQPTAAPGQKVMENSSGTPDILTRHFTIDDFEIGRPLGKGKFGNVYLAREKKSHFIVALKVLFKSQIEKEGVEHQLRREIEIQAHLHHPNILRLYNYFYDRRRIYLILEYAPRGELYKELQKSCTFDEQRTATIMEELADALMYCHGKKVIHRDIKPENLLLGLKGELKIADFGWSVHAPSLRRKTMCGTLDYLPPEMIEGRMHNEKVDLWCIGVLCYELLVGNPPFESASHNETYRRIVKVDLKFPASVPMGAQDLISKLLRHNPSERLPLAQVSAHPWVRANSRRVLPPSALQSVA
Protocol: (§2) Compound X was profiled in enzymatic kinase assays as well as in proliferation assays on various human cancer cell lines. Cell cycle status was assessed by DNA content analysis (Cellomics ArrayScan, FACScalibur). Histone H3 phosphorylation was determined by immunofluorescence (Cellomics ArrayScan). Apoptosis was detected by Western blotting for cleaved PARP and microscopic enumeration of DAPI-stained cells showing nuclear fragmentation. Senescent cells were identified by staining for SA-β-Gal activity.

[2] = system: 46 additional kinases representative of the human kinome; assay: Panel of 46 additional kinases; format: biochemical; settings: Compound at 1000 nM
Protocol: as §2

[3] = system: histone H3 phosphorylation in NCI-H460 cells; assay: Histone H3 phosphorylation by immunofluorescence (Cellomics ArrayScan); format: cell-based, human
Protocol: as §2

NCI-H460 cells [4] = assay: Cell cycle status by DNA content analysis (polyploidy); format: cell-based, human; settings: NCI-H460, within 48 h of treatment; increased from <5%
Protocol: as §2

human cancer cell lines = assay: Proliferation assays on human cancer cell lines; format: cell-based; settings: >20 human cancer cell lines; read-out: EC50 for inhibition of proliferation
Protocol: as §2

NCI-H460 cells [5] = assay: Apoptosis: cleaved PARP Western blot and nuclear fragmentation of DAPI-stained cells; format: cell-based, human; settings: NCI-H460, after 72 h and 96 h of treatment
Protocol: as §2

THP-1 = assay: AML cancer model THP-1; format: in vivo; settings: THP-1 AML model
Aurora A kinase = target: T1, Aurora A kinase (Homo sapiens, UniProt O14965); assay: Enzymatic kinase assay, Aurora A; format: biochemical
T1 sequence (O14965 1-403): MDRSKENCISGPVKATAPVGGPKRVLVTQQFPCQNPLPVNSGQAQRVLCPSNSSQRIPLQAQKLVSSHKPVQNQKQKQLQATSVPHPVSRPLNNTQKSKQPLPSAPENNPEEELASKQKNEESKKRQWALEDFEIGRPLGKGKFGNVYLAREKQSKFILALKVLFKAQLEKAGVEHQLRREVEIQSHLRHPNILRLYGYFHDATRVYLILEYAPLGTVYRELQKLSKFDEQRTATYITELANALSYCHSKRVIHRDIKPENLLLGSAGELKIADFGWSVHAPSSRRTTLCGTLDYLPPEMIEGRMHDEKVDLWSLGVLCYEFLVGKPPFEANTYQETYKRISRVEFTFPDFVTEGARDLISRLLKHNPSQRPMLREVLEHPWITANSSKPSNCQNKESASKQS
Protocol: as §2

[6] = system: NCI-H460 non-small cell lung carcinoma; assay: NCI-H460 non-small cell lung carcinoma subcutaneous xenograft; format: in vivo, mice; settings: for T/C: NCI-H460
Protocol: as §1

Aurora C kinase = target: T2, Aurora C kinase (Homo sapiens, UniProt Q9UQB9); assay: Enzymatic kinase assay, Aurora C; format: biochemical
T2 sequence (Q9UQB9 1-309): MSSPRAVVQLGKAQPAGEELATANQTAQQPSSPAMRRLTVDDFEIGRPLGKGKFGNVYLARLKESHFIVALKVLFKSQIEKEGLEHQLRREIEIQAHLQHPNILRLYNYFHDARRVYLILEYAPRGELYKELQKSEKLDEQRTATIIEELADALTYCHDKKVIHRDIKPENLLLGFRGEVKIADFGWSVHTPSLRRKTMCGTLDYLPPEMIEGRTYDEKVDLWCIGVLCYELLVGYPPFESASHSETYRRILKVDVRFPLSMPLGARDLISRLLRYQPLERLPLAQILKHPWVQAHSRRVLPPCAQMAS
Protocol: as §2

NCI-H460 cells [7] = assay: Senescence by SA-β-Gal staining; format: cell-based, human; settings: NCI-H460, within 96 h; from <3%
Protocol: as §2

MV-4; 11 = assay: AML cancer model MV-4;11; format: in vivo; settings: MV-4;11 AML model
[8] = system: Calu-6 xenografts (human NSCLC tumor cell line); assay: Calu-6 NSCLC subcutaneous xenograft, single agents and combination; format: in vivo, mice; settings: Calu-6, d40; large tumors, ca. 350 mm^3 at start of treatment
Protocol: In order to analyse the anti-tumor effects of combining the inhibition of tumor angiogenesis by interfering with the VEGFR signalling cascade with the antitumor activity of inhibiting Aurora kinase B, the following in vivo experiment is performed. Nude mice carrying established subcutaneous Calu-6 xenografts (human NSCLC tumor cell line) are randomized and treated with either the Aurora B kinase inhibitor of this invention Compound X or BIBF 1120 alone or with the combination of both drugs. After termination of treatment the tumors on the control treated mice (black line with circles in FIG. 1) are in average about 1100 mm^3 in volume.
FIG. 1: Calu-6 NSCLC model, combination BIBF 1120+Compound X, schedule (cf. Drawings; control group: line with circles; BIBF 1120 treated group: line with rhombs; Compound X (AKI) treated group: line with triangles; Combo BIBF 1120+Compound X (AKI) treated group: line with squares).

HCT 116 colon carcinoma = HCT 116 colon carcinoma subcutaneous xenograft; format: in vivo, mice; settings: for T/C: HCT 116
Protocol: as §1

[9] = 15 BID mg/kg, weekly dose 60 mg/kg, (qdx2)x6, i.v.

For `CC(C)NC(=O)[C@H]1CCC[C@H]1Nc1nc(Nc2ccc(C(=O)N(C)C3CCN(C)CC3)cc2)ncc1C(F)(F)F` [Compound X], the T/C ([1]; 20 mg/kg, weekly dose 20 mg/kg, (q7d)x4, 24 h cont. inf.) was 6%, the T/C [1, 9] was 17% and the “effect on tumor growth” value ([1]; pancreas carcinoma model, multiple cycles, total weekly doses of 20 to 75 mg/kg) was “dose-dependent inhibition of tumor growth or tumor regression”. The IC50 (human Aurora B kinase) was 9 nM, the “kinases inhibited by more than 50%” value [2] was 7/46 and the “time to inhibition of histone H3 phosphorylation” value [3] was under 1 h. For the same compound, the “fraction of polyploid cells” value (NCI-H460 cells [4]) was over 80%, the EC50 (human cancer cell lines) was 2 to 14 nM and the “cleaved poly (ADP-ribose) polymerase” value (NCI-H460 cells [5]) was “An increase of cleaved poly (ADP-ribose) polymerase”. The “fraction of cells with nuclear fragmentation” value (NCI-H460 cells [5]; from <1%) was 7%, the T/C value (THP-1) was 7% and the IC50 (Aurora A kinase) was 70 nM. For the same compound, the T/C ([6]; 20 mg/kg, weekly dose 20 mg/kg, (q7d)x3, 24 h cont. inf.) was 8%, the T/C ([6]; 15 BID mg/kg, weekly dose 60 mg/kg, (qdx2)x3, i.v.) was 27% and the “effect on tumor growth” value ([6]; non-small cell lung cancer model, multiple cycles, total weekly doses of 20 to 75 mg/kg) was “dose-dependent inhibition of tumor growth or tumor regression”. For the same compound, the IC50 (Aurora C kinase) was 17 nM, the “senescent cells, fraction of the population” value (NCI-H460 cells [7]) was 25% and the T/C value (MV-4; 11) was 5%. The “median T/C value” [8] was 45%, the “effect on large tumors” value (HCT 116 colon carcinoma; HCT 116, large tumors (350 mm^3)) was “regression of large tumors (350 mm^3) was induced” and the T/C (HCT 116 colon carcinoma; 20 mg/kg, weekly dose 20 mg/kg, (q7d)x5, 24 h cont. inf.) was 2%. The T/C (HCT 116 colon carcinoma; 30 mg/kg, weekly dose 60 mg/kg, (qdx2)x6, i.v.) was 25%, the T/C (HCT 116 colon carcinoma; [9]) was 4% and the T/C (HCT 116 colon carcinoma; 37.5 BID mg/kg, weekly dose 75 mg/kg, (q7d)x6, i.v.) was 8%. For the same compound, the “histological examination of tumors” value (HCT 116 colon carcinoma; HCT 116 tumors) was “accumulation of enlarged, multinucleated cells”, the “phosphorylation of histone H3 in tumors (biomarker analysis)” value (HCT 116 colon carcinoma; HCT 116 tumors, therapeutic doses) was “inhibited phosphorylation of histone H3” and the “effect on tumor growth” value (HCT 116 colon carcinoma; colon carcinoma model, multiple cycles, total weekly doses of 20 to 75 mg/kg) was “dose-dependent inhibition of tumor growth or tumor regression”.

For `COC(=O)c1ccc2c(c1)NC(=O)/C2=C(\Nc1ccc(N(C)C(=O)CN2CCN(C)CC2)cc1)c1ccccc1` [BIBF 1120, 3-Z-[1-(4-(N-((4-methyl-piperazin-1-yl)-methylcarbonyl)-N-methyl-amino)-anilino)-1-phenyl-methylene]-6-methoxycarbonyl-2-indolinone], the “median T/C value” [8] was 50%.
